A short description of the data set: gradient 5% acetonitrile 3 min, to 50% in 2 min, to 85% in 15 min, held 3 min, 100 µL/min. The settings on record: column: Zorbax Extend-C18 2.1 x 50 mm; eluents: water / acetonitrile, 0.1% formic acid. A digest of the protocol:
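Standards, all pure, were combined into mixtures of ~100 molecules and run at 100 μL/min on a Zorbax Extend-C18 column (2.1 × 50 mm, 1.8 μm) with water and acetonitrile, each containing 0.1% formic acid. A coupled quadrupole time-of-flight mass spectrometer operated in positive and negative ionization mode. Retention time values come from computationally picked adduct peaks, each inspected manually.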
For `O=C(COc1ccc(Cl)cc1Cl)N1CCN(c2ccc3nncn3n2)CC1`, the RP-LC retention time was 687 s.
For `CCn1c(=O)c(N2CCN(C(=O)Nc3cc(C)cc(C)c3)CC2)nc2ccccc21` the value was 927 s; for `Cc1ccc(-n2cc(C(=O)NCc3ccco3)nn2)cc1C`, 854 s.
For `CC(C)n1c(CNC(=O)C2CC(=O)N(c3n[nH]c4ccccc34)C2)nc2ccccc21` (configuration not stated) the value was 614 s; for `CCOc1ccc(-c2cc3c(=O)n(Cc4nc(-c5ccccc5C)no4)ncn3n2)cc1`, 1130 s.
For `CCOC(=O)C1=C(CNc2ccc(F)cc2)NC(=O)NC1c1ccccc1` (configuration not stated) the value was 868 s.
Regarding `CC1CCN(C(=O)c2ccc3c(c2)CCCN3S(C)(=O)=O)CC1`, the RP-LC retention time came to 836 s.
Molecule `CC1CCN(C(=O)CN2c3ccc(F)cc3-c3ccccc3S2(=O)=O)CC1` showed an RP-LC retention time of 982 s.
For `Cc1c(C(=O)N2CCOCC2)cnn1-c1ccc(-c2nc(C(C)(C)C)no2)cn1` the value was 942 s.
Take `COc1ccccc1-c1noc(C2CCCN2C(=O)c2cccc(OC)c2OC)n1` (configuration not stated): the RP-LC retention time amounted to 993 s.
Turning to `O=C(C1CCCN(c2ccc(N3CCOCC3)nn2)C1)N1CCN(c2ccccc2)CC1` (configuration not stated), the RP-LC retention time turned out to be 635 s.
For the molecule `COC1CCC12CCN(C(=O)c1ccc(C)s1)CC2` (configuration not stated), the RP-LC retention time was 895 s.
For `COCCCn1c(=O)c2ccccc2n(Cc2nc(-c3cccc(C(F)(F)F)c3)no2)c1=O` the value was 1080 s.
In turn, `O=C(NC1CCCCCC1)C1CCN(c2nccnc2Oc2ccccc2)CC1` gave an RP-LC retention time of 1020 s.
Molecule `Cc1c(C(=O)C(=O)Nc2cccc(F)c2)c2ccccc2n1C` displayed an RP-LC retention time of 960 s.
For `CCOC(=O)CCC(=O)Nc1ccc(S(=O)(=O)N2CCc3ccccc32)cc1` the value was 834 s.
Molecule `COC(=O)C1=CN(c2ccc(OC)c(Cl)c2)c2cc(F)ccc2S1(=O)=O` came in with an RP-LC retention time of 914 s.
With `CN1CCN(c2nc(C(=O)NC3CCN(c4ccc(=O)n(C)n4)CC3)cs2)CC1`, the RP-LC retention time stood at 566 s.
As for `COc1ccc(Cl)cc1NC(=O)CSc1nc(-c2ccccc2C)ns1`, the figure is 1230 s.
For `O=C(Cn1nc2c3sc(N4CCCCC4)nc3ncn2c1=O)Nc1ccc(F)c(F)c1` the value was 851 s; for `CCc1nnc2ccc(-c3noc(-c4cc(Cl)ccc4F)n3)cn12`, 1010 s.
For `Cc1cc(C)cc(C(=O)N2CCN(c3nnc4ccccn34)CC2)c1` the value was 657 s; for `CN(C)C[C@@H]1CN(c2ncccn2)C[C@H]1NC(=O)NCCc1ccccc1`, 600 s; for `O=c1ccc(N2CCCN(S(=O)(=O)c3ccc(F)cc3F)CC2)nn1-c1ccccc1`, 842 s.
Consider `CCc1ccc(NC(=O)C2CCCN(c3nc4ccccc4nc3C(F)(F)F)C2)cc1` (configuration not stated), for which the RP-LC retention time came to 1230 s.
Molecule `COCCN1C(=O)c2ccccc2C(C(=O)Nc2ccc3c(c2)OCO3)C12CCCC2` (configuration not stated) showed an RP-LC retention time of 816 s.
For `Cc1csc(-c2ccc(N3CCN(C(=O)c4ccco4)CC3)nc2)n1` the value was 711 s; for `CCOCCCN1C(=O)c2cc(-c3ccccc3)nn2CC1(C)C(=O)NCc1ccccc1` (configuration not stated), 914 s; for `Cc1ccc(C)c(NC(=O)C2CCCN(S(=O)(=O)c3c[nH]c(C(=O)N4CCCCCC4)c3)C2)c1` (configuration not stated), 923 s.
In turn, `CC(=O)N1c2ccc(S(=O)(=O)N3CCCC3)cc2CC1C(=O)NCCCc1ccccc1` (configuration not stated) displayed an RP-LC retention time of 868 s.
Take `CCc1cc(C(=O)N2CCCCCC2)nc2cc(-c3ccsc3)nn12`: the RP-LC retention time stood at 1070 s.
For the molecule `CC(=O)OCCNc1nc(-c2ccccc2)nc2ccccc12`, the RP-LC retention time turned out to be 623 s.

For the origin of these results see the METLIN SMRT retention time set (Domingo-Almenara et al. 2019).
